Source: patent US10793589B2, “Resorcinarene-based amphipathic compound and use thereof” (Industry-University Cooperation Foundation Hanyang …, priority 2016, dated 2020)
“Also recorded” adds a separate entry of the source.

Experiments:
[1] = Critical micelle concentration by fluorescence dye diphenylhexatriene (DPH); format: physicochemical; conditions: DPH fluorescence
Description: A method of measuring the CMC is not particularly limited and may be any method generally known in the art. For example, the CMC may be measured according to a fluorescence staining method using diphenylhexatriene (DPH).
(§1) Specifically, critical micelle concentrations (CMCs) were measured using a fluorescence dye, diphenylhexatriene (DPH), and hydrodynamic radii (Rh) of micelles formed of each compound (1.0 wt %) were measured by a dynamic light scattering (DLS) experiment. Measured results are shown in Table 1 in comparison with values of DDM as an existing amphipathic molecule (detergent).

[2] = Hydrodynamic radius and size distribution of micelles by dynamic light scattering (DLS); format: physicochemical; conditions: compound 1.0 wt %
Description: A method of measuring the radius of a micelle is not particularly limited and may be any method generally known in the art. For example, the radius may be measured by a dynamic light scattering (DLS) experiment.
as §1
Meanwhile, size distributions of the micelles formed by RGAs and RMAs were measured using DLS.

[3] = target: T1, uric acid-xanthine/H+ symporter (UapA) (Emericella nidulans, UniProt Q07307, G411V); assay: UapA structural/thermal stability (FSEC, CPM assay); format: biochemical, Aspergillus nidulans; conditions: FIG. 5 (RGAs, FSEC), FIG. 6 (RMAs, CPM assay 40° C. 150 min, CMC+0.04 or CMC+0.2 wt %)
T1 construct: GFP; made in house; host or cells: Saccharomyces cerevisiae FGY217
Description: FIGS. 5A and 5B are a set of graphs illustrating a result of measuring the thermal stability of UapA in an aqueous solution caused by RGAs or DDM via fluorescence-detection size exclusion chromatography (FSEC):
FIGS. 6A and 6B are a set of graph illustrating a result of measuring thermal denaturation profile of UapA protein in DDM and novel RMAs (RMA-Cs and RMA-CEs) used at CMC+0.04 wt % (a) or CMC+0.2 wt % (b). Protein stability was assessed by CPM assay carried out at 40° C. for 150 min.
An experiment was carried out to measure the structural stability of a uric acid-xanthine/H^+ symporter (UapA) isolated from Aspergillus nidulans caused by RGAs and RMAs. The structural stability of UapA was measured using a sulfhydryl-specific fluorophore, N-[4-(7-diethylamino-4-methyl-3-coumarinyl)phenyl] maleimide (CPM).
Specifically, UapAG411V1-11 (hereinafter, referred to as “UapA”) was expressed in combination with GFP in Saccharomyces cerevisiae FGY217 strains and isolated into a sample buffer (20 mM Tris (pH 7.5), 150 mM NaCl, 0.03% DDM, and 0.6 mM xanthine) according to the method described in the paper (Mol. Membr. Biol. 2013, 30, 32-42) written by J. Leung et al. The membranes containing UapA were diluted to a final protein concentration of 2.8 mg ml^−1 in PBS (pH 7.4) supplemented with either 1% DDM or 1% RMAs or RGAs. […]

[4] = target: T2, human β2 adrenergic receptor (β2AR) (Homo sapiens, UniProt P07550); assay: β2AR stability, [3H]-dihydroalprenolol (DHA) ligand binding assay; format: biochemical; conditions: for maintaining the ligand binding characteristic of the receptor compared to DDM: 0 hour, CMC+0.2 wt %, [3H]-DHA
T2 construct: made in house
Description: (§2) FIGS. 10A and 10B illustrate a result of measuring the effect of RGAs on the stability of β2AR after (a) 0 hour and (b) over time. Protein-ligand binding characteristics were measured via ligand binding assay using [^3H]-dihydroalprenolol (DHA), and the measurement was carried out by sampling a protein sample at regular intervals during 2 days of storage at room temperature.
as §2, with “12A” for “10A”, “12B” for “10B”, “RMAs” for “RGAs”
An experiment was carried out to measure the structural stability of a human (32 adrenergic receptor (β2AR) and a G protein-coupled receptor (GPCR) caused by RGAs and RMAs. That is, a receptor purified with DDM was diluted with a buffer solution containing only each RGA and RMA without cholesteryl hemisuccinate (CHS) or a buffer solution containing CHS and DDM. The final concentration of the compound was CMC+0.2 wt %, and the ligand binding characteristic of the receptor was measured using [^3H]-dihydroalprenolol ([^3H]-DHA) binding.
Specifically, radioligand binding assay was carried out using the following method. β2AR was purified using 0.1% DDM according to the method described in a paper (Science, 2007, 318, 1266-1273.) written by D. M. Rosenbaum et al. and finally concentrated to about 10 mg/ml (about 200 μM). The β2AR purified with DDM was used to prepare a master binding mixture containing 10 nM [^3H]-dihydroalprenolol (DHA) supplemented with 0.5 mg/ml BSA in a 0.2% amphipathic compound (DDM, RGAs or RMAs). The receptor purified with DDM, RGAs or RMAs was incubated with 10 nM [^3H]-DHA at room temperature for 30 minutes. The mixture was loaded into a G-50 column, the flow-through was collected with 1 ml of a binding buffer (20 mM HEPES pH 7.5, 100 mM NaCl, supplemented with 0.5 mg/ml BSA and 20×CMC individual amphipathic compound, and the G-50 column was further filled with 15 ml of a scintillation fluid. Receptor-bound [^3H]-DHA was measured with a scintillation counter (Beckman). The binding capacity of [^3H]-DHA was measured and shown in a column graph. Each experiment was performed in triplicate.

[5] = target: T3, Salmonella typhimurium melibiose permease (MelB) (Salmonella typhimurium, UniProt P30878); assay: MelB extraction and solubility after 90 min incubation, SDS-PAGE and western blotting; format: biochemical; conditions: 55° C., 1.5 wt %
T3 construct: made in house; host or cells: E. coli DW2 (melB and lacZY deleted), plasmid pK95AHB/WT MelBSt/CH10
Description: FIGS. 9A and 9B illustrate a result of measuring the amount of a MelB protein dissolved in an aqueous solution after a MelB protein was extracted at four temperatures (0, 45, 55, and 65) using RGAs or DDM at a concentration of 1.5 wt % and then incubated at the same temperatures for 90 minutes:
RGAs were selected, and an experiment was carried out to measure the structural stability of a Salmonella typhimurium melibiose permease (MelB) caused by RGAs. A MelB protein was extracted from a membrane using RGAs or DDM, and the amount and structure of the protein thus extracted was then analyzed by performing SDS-PAGE and western blotting. In this case, the concentration of the used amphipathic compound was 1.5 wt %. The protein was extracted at four temperatures (0, 45, 55, and 65° C.) and then incubated at the same temperatures for 90 minutes. Subsequently, two kinds of performance of the compound, that is, protein extraction efficiency and protein stability were evaluated at the same time by measuring the amount of a protein which remained dissolved in an aqueous solution. The amount of a protein which was extracted and stabilized by an individual amphipathic molecule was expressed as a relative value (%) with respect to the amount of the entire protein included in a membrane sample not treated with an amphipathic molecule.
Specifically, a C-terminal 10-His-tagged Salmonella typhimurium melibiose permease (MelBSt) was expressed in E. coli DW2 cells (melB and lacZY) using plasmid pK95AHB/WT MelBSt/CH10. Cells were grown and membranes were prepared according to the method described in a paper (Nat. Commun. 2014, 5, 3009) written by A. S. Ethayathulla et al. A protein assay was carried out with a Micro BCA kit (Thermo Scientific, Rockford, Ill.). RGAs and DDM were evaluated to measure the stability of MelBSt according to the protocol described in a paper (Nat. Methods 2010, 7, 1003-1008) written by P. S. Chae et al. The membrane sample (final protein concentration of 10 mg/mL) containing MelBSt was incubated in a solubilization buffer containing 1.5% (w/v) DDM or RGAs (20 mM sodium phosphate, pH 7.5, 200 mM NaCl, 10% glycerol, and 20 mM melibiose) at four temperatures (0, 45, 55, and 65° C.) for 90 minutes. An insoluble material was removed by ultracentrifugation at 355,590 g at 4° C. for 45 minutes using a Beckman Optima™ MAX ultracentrifuge equipped with a TLA-100 rotor. A dissolved portion was separated by SDS-16% PAGE, and immunoblotting was then performed using a Penta-His-HRP antibody (Qiagen, Germantown, Md.). A membrane fraction containing 20 μg of protein without treatment was used to illustrate the overall MelB, and the treated samples were loaded into each well in equal volume. MelBSt was measured using the SuperSignal West Pico Chemiluminescent substrate by ImageQuant LAS 4000 Biomolecular Imager (GE Healthcare Life Sciences).

[6] = target: T2, human β2 adrenergic receptor (β2AR); assay: Size exclusion chromatography (SEC) of β2AR receptor-detergent complex; conditions: 20×CMC detergent
Description: FIG. 11 illustrates a result of evaluating the size characteristic of a (32AR protein-ligand binding complex formed of RGA-C11, RGA-C13, or DDM via a size exclusion chromatography (SEC) test.
In addition, a size exclusion chromatography (SEC) test was conducted. Specifically, β2AR purified with 0.1% DDM was loaded on a M1 Flag column in the presence of 2 mM CaCl2, and the column was washed with a DDM, RGA-C11 or RGA-C13 detergent buffer (20 mM HEPES pH 7.5, 100 mM NaCl, 0.2% individual amphipathic compound). The receptor was eluted with 20×CMC DDM, RGA-C11, or RGA-C13 with 5 mM EDTA and 0.2 mg/ml free Flag peptide. The eluate was further added to a Superdex-200 10/300 GL column (GE Healthcare) at 0.5 ml/min, and UV absorbance at 280 nm was recorded. The running buffer contained 20 mM HEPES pH 7.5, 100 mM NaCl, 20×CMC individual detergent (DDM, RGA-C11 and RGA-C13).

T2 sequence (P07550 whole entry): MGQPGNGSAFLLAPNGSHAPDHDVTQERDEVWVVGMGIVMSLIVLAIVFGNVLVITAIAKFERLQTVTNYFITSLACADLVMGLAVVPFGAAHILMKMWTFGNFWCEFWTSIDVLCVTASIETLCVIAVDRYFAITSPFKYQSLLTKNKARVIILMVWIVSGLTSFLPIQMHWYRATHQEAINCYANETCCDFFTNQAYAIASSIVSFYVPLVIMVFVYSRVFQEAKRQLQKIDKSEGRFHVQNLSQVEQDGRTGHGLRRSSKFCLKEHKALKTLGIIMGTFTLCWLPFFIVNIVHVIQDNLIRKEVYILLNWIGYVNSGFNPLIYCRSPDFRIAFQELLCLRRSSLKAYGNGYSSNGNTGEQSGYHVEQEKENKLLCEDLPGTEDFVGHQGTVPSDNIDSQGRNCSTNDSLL
T3 sequence (P30878 whole entry): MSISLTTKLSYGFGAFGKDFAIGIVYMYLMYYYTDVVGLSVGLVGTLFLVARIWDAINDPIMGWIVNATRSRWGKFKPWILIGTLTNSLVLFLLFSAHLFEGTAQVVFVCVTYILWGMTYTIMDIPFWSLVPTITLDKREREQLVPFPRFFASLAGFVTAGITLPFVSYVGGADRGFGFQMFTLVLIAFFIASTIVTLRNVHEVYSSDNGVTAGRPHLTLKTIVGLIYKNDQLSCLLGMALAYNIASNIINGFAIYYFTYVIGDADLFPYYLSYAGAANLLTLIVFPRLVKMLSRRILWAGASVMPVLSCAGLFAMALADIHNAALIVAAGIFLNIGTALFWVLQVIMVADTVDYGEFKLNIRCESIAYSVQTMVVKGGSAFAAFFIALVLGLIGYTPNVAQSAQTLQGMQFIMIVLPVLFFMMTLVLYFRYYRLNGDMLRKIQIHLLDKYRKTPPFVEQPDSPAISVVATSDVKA
T1 sequence (Q07307 12-574 G411V): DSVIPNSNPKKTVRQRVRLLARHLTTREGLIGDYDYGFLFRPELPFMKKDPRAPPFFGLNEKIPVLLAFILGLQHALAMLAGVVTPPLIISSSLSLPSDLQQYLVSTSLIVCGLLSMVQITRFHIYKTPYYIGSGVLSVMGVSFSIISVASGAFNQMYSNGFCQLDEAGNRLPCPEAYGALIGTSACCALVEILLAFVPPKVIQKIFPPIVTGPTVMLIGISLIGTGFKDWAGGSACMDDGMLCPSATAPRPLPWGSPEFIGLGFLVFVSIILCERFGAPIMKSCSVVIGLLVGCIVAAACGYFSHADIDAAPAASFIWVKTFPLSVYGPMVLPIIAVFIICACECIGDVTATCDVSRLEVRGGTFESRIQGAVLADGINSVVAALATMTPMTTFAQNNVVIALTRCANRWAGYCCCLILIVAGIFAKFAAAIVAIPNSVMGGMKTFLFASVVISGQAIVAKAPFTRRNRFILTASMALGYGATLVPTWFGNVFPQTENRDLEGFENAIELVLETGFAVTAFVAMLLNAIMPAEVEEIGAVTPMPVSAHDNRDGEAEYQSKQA

## CCCCCCCC[C@H]1c2cc(c(OCCO[C@@H]3OC(CO)[C@@H](O)[C@H](O)C3O)cc2OCCO[C@@H]2OC(CO)[C@@H](O)[C@H](O)C2O)[C@H](CCCCCCCC)c2cc(c(OCCO[C@@H]3OC(CO)[C@@H](O)[C@H](O)C3O)cc2OCCO[C@@H]2OC(CO)[C@@H](O)[C@H](O)C2O)[C@@H](CCCCCCCC)c2cc(c(OCCO[C@@H]3OC(CO)[C@@H](O)[C@H](O)C3O)cc2OCCO[C@@H]2OC(CO)[C@@H](O)[C@H](O)C2O)[C@@H](CCCCCCCC)c2cc1c(OCCO[C@@H]1OC(CO)[C@@H](O)[C@H](O)C1O)cc2OCCO[C@@H]1OC(CO)[C@@H](O)[C@H](O)C1O (stereo partly drawn) [RGA-C9]
[1]
  CMC: ~7 µM
  CMC (wt %): ~0.018 wt %
[2]
  Rh (nm), hydrodynamic radius of micelles: 2.9 ± 0.1 nm
[3]
  ability to maintain the UapA protein in a folded state compared to DDM: highest effect
[4]
  maintaining the ligand binding characteristic of the receptor compared to DDM: inferior to DDM

## CCCCCCCCCCCC[C@H]1c2cc(c(OCCO[C@@H]3OC(CO)[C@@H](O)[C@H](O)C3O)cc2OCCO[C@@H]2OC(CO)[C@@H](O)[C@H](O)C2O)[C@H](CCCCCCCCCCCC)c2cc(c(OCCO[C@@H]3OC(CO)[C@@H](O)[C@H](O)C3O)cc2OCCO[C@@H]2OC(CO)[C@@H](O)[C@H](O)C2O)[C@@H](CCCCCCCCCCCC)c2cc(c(OCCO[C@@H]3OC(CO)[C@@H](O)[C@H](O)C3O)cc2OCCO[C@@H]2OC(CO)[C@@H](O)[C@H](O)C2O)[C@@H](CCCCCCCCCCCC)c2cc1c(OCCO[C@@H]1OC(CO)[C@@H](O)[C@H](O)C1O)cc2OCCO[C@@H]1OC(CO)[C@@H](O)[C@H](O)C1O (stereo partly drawn) [RGA-C13]
[1]
  CMC (wt %): ~0.0056 wt %
[2]
  Rh (nm), hydrodynamic radius of micelles: 3.7 ± 0.1 nm
[5]
  MelB protein extraction efficiency and solubility: maintained MelB solubility better than DDM; also recorded: higher protein extraction efficiency than DDM
[4]
  maintaining the ligand binding characteristic of the receptor compared to DDM: superior to DDM
[4]; 2 days at room temperature, early stage (0 to 12 h)
  ability to maintain the ligand binding of the receptor over time compared to DDM: superior ability to maintain the ligand binding of the receptor compared to DDM
[4]; incubation at room temperature, early stage
  receptor stability / ligand binding maintenance relative to DDM (fold, in words): enhanced by almost three times
[6]
  size of receptor-detergent complex: significantly smaller than that formed of DDM
